# Measured values from patent US10174021B2, “Substituted pyrazolo[1,5-A]pyridines and their use” (BAYER PHARMA AKTIENGESELLSCHAFT, priority 2014, dated 2019).
# Structures can show the parent of a compound that is named as a salt.
# Test system: recombinant guanylate cyclase reporter cell line
# Assay: Effect on a recombinant guanylate cyclase reporter cell line
# Assay type: cell-based
# Conditions: in some cases mean values from individual determinations, read-out: MEC (minimum effective concentration)
# Protocol: B-2. Effect on a Recombinant Guanylate Cyclase Reporter Cell Line
# The cellular activity of the compounds according to the invention is determined using a recombinant guanylate cyclase reporter cell line, as described in F. Wunder et al., Anal. Biochem. 339, 104-112 (2005).
# Representative MEC values (MEC=minimum effective concentration) for the compounds of the invention are shown in the table below (in some cases as mean values from individual determinations): […]
row,SMILES,minimal effective concentration [µM]
1,"Cc1cc(OCc2c(F)cccc2F)n2nc(C)c(-c3cncc(C(=O)O)c3)c2c1 [Example 27, 5-{7-[(2,6-Difluorobenzyl)oxy]-2,5-dimethylpyrazolo[1,5-a]pyridin-3-yl}nicotinic acid]",2
2,"Cc1cc(OCc2c(F)cccc2F)n2nc(C)c(-c3cncc(C(N)=O)c3)c2c1 [Example 28, 5-{7-[(2,6-Difluorobenzyl)oxy]-2,5-dimethylpyrazolo[1,5-a]pyridin-3-yl}nicotinamide]",0.03
3,"Cc1cc(OCc2c(F)cccc2F)n2nc(C)c(-c3cncnc3)c2c1 [Example 29, 7-[(2,6-Difluorobenzyl)oxy]-2,5-dimethyl-3-(pyrimidin-5-yl)pyrazolo[1,5-a]pyridine]",0.3
4,"Cc1cc(OCc2c(F)cccc2F)n2nc(C3CC3)c(-c3cnn(CCN4CCOCC4)c3)c2c1 [Example 30, 2-Cyclopropyl-7-[(2,6-difluorobenzyl)oxy]-5-methyl-3-{1-[2-(morpholin-4-yl)ethyl]-1H-pyrazol-4-yl}pyrazolo[1,5-a]pyridine]",0.01
5,"Cc1cc(OCc2c(F)cccc2F)n2nc(C3CC3)c(-c3cn[nH]c3)c2c1 [Example 31, 2-Cyclopropyl-7-[(2,6-difluorobenzyl)oxy]-5-methyl-3-(1H-pyrazol-4-yl)pyrazolo[1,5-a]pyridine]",0.03
6,"Cc1cc(OCc2c(F)ccc(F)c2F)n2nc(C)c(-c3cnn(CCN4CCOCC4)c3)c2c1 [Example 32, 2,5-Dimethyl-3-{1-[2-(morpholin-4-yl)ethyl]-1H-pyrazol-4-yl}-7-[(2,3,6-trifluorobenzyl)oxy]pyrazolo[1,5-a]pyridine trifluoroacetate]",0.1
7,"Cc1cc(OCC2CCCCC2)n2nc(C)c(-c3cnn(CCN4CCOCC4)c3)c2c1 [Example 33, 7-(Cyclohexylmethoxy)-2,5-dimethyl-3-{1-[2-(morpholin-4-yl)ethyl]-1H-pyrazol-4-yl}pyrazolo[1,5-a]pyridine]",0.1
8,"Cc1cc(OCc2c(F)cccc2F)n2nc(C)c(-c3nc(N)c4c(n3)NC(=O)C4(C)C)c2c1 [Example 34, 4-Amino-2-{7-[(2,6-difluorobenzyl)oxy]-2,5-dimethylpyrazolo[1,5-a]pyridin-3-yl}-5,5-dimethyl-5,7-dihydro-6H-pyrrolo[2,3-d]pyrimidin-6-one trifluoroacetate]",1
9,"Cc1cc(OCc2c(F)cccc2F)n2nc(C)c(-c3nc(NCC(C)(C)N)c4c(n3)NC(=O)C4(C)C)c2c1 [Example 35, 4-[(2-Amino-2-methylpropyl)amino]-2-{7-[(2,6-difluorobenzyl)oxy]-2,5-dimethylpyrazolo[1,5-a]pyridin-3-yl}-5,5-dimethyl-5,7-dihydro-6H-pyrrolo[2,3-d]pyrimidin-6-one]",3
